# Experimental data: patent US9078825B2, “Method for the production of bioadhesive compact matrices” (Università degli Studi di Genova, priority 2008, dated 2015)
# Where a name gives a salt, the structure may show the parent alone.
# Assay: Heating of the active substance at 150° C. for 15 minutes (HPLC, DSC, TGA, HSM, spectroscopic investigations)
# Assay type: physicochemical
# Experimental: Physical Stability Studies on the Active Substances and the Excipients Used in the Formulation of the Tablets.
# 5.0 mg carefully weighed of every excipient/substance was placed in aluminium pans, closed with a suitable press and analyzed by means of DSC (Perkin Elmer 7) under nitrogen flow; the analysis was also carried out on the thermally-treated powders. The operating conditions utilised were the following: initial temperature (Tstart)=50° C.; final temperature (Tend) 250° C.; gradient=10° C./min.
# The determination of the weight variations of the active substances and excipients, of the powder mixtures and the powders obtained by crushing the tablets was conducted through TGA 7 of Perkin Elmer, in nitrogen atmosphere, using the same temperatures and the same heating gradients used in the thermal heat treatments.
smiles,measurement,value
COc1ccc([C@@H]2Sc3ccccc3N(CCN(C)C)C(=O)[C@@H]2OC(C)=O)cc1 [Diltiazem hydrochloride],physical or chemical modification after heating,did not involve any physical or chemical modification
